Data from US20260191853A1, “METHOD OF TREATING DRUG-INDUCED BRADYARRHYTHMIA” (OSAKA UNIVERSITY, priority 2022, published 2026).
Structures can show the parent of a compound that is named as a salt. Blank lines part the entries; values can stand above or below the compound they belong to.

Tests used:
Hartley guinea pigs [1] = assay: Preventive effect on fingolimod-induced bradyarrhythmia in isoflurane-anesthetized guinea pig model; format: in vivo; settings: fingolimod hydrochloride 0.1 mg/kg i.v. over 10 min, compound (I) non-administration group
Procedure: A solvent or compound (I) (free form) was administered by oral gavage at a dose of 1, 3, or 10 mg/kg (volume: 5 mL/kg) to Hartley guinea pigs (7 to 10 weeks old, male, available from Japan SLC, Inc.). After completion of the administration, each animal was subjected to anesthetic induction by inhalation of isoflurane (available from Pfizer Japan Inc.), and the animal was held on an operating table having a heater function. The trachea was incised, and a tracheal cannula (KN-375, available from Natsume Seisakusho Co., Ltd.) was inserted. The tracheal cannula was connected to a ventilator (SN-480-7, available from Shinano Seisakusho Co., Ltd.), and artificial respiration was controlled by supplying 100% oxygen at a volume of 10 mL and a ventilation rate of 60 times/minute. The solvent used was 0.5 w/v % methyl cellulose 400 solution (available from FUJIFILM Wako Pure Chemical Corporation). Isoflurane (available from Pfizer Japan Inc.) anesthesia (about 1 to 4%, carrier gas: 100% oxygen) was used for maintenance of anesthesia. A catheter (BD intramedic polyethylene tubing PE50, available from Becton, Dickinson and Company) charged with 50 units/mL heparin (available from AY PHARMACEUTICALS CO., LTD.) was inserted into each of the carotid artery and the jugular vein and placed in the blood vessel. Systemic blood pressure was measured with a high-sensitivity DC amplifier (AD-611J, available from NIHON KOHDEN CORPORATION) via the catheter placed in the carotid artery. Electrodes were attached to the body surface, and a body surface electrocardiogram was measured with a high-sensitivity amplifier (AB-611J, available from NIHON KOHDEN CORPORATION). Blood pressure and electrocardiogram data were acquired and analyzed with PowerLab/Labchart system (available from ADInstruments). Analysis items are systolic blood pressure, diastolic blood pressure, average blood pressure, heart rate, P-wave width, PR interval, QRS width, QT interval, and corrected QT interval. Corrected QT interval was calculated using the fridericia formula (QTc=QT interval/RR interval^1/3). After stabilization of each parameter, fingolimod hydrochloride (synthesized with reference to WO 2000/027798) was continuously administered intravenously at 0.1 mg/kg for 10 minutes via the catheter placed in the jugular vein, followed by observation of the presence or absence of the onset of bradyarrhythmia for 60 minutes. The solvent used was saline (available from Otsuka Pharmaceutical Factory, Inc.). Data were recorded and blood was collected 5, 10, 15, 20, 30, and 60 minutes after initiation of administration of fingolimod hydrochloride. The observation was terminated 60 minutes after initiation of the administration, and the animal was euthanized by exsanguination or intravenous administration of a large amount of pentobarbital or saturated potassium chloride solution under isoflurane anesthesia. Data were analyzed for atrial beating rate over time, ventricular beating rate over time, electrocardiographic parameters, the presence or absence of the onset of atrioventricular block, and plasma concentrations of compound (I), fingolimod, and fingolimod phosphorylated form. The plasma was collected by centrifuging the blood and cryopreserved at about −20° C. After thawing of the plasma, plasma drug concentrations were measured using LC/MS/MS after deproteinization with acetonitrile.
Atrioventricular block was defined as follows.
Second-degree atrioventricular block: atrial activation wave (P wave) is normal, which is followed by or not followed by ventricular activation wave (QRS wave).
Third-degree atrioventricular block: there is no electrical conduction between the atrium and the ventricle, and atrial and ventricular activation waves are generated independently, resulting in atrioventricular dissociation.
In FIG. 1, the measurements are shown as mean±standard error. […]

[2] = tested on: human iPS cell-derived atrial myocytes; assay: Siponimod-induced decrease in beating rate in human iPS cell-derived atrial myocytes (multi-electrode array); format: cell-based; settings: 0.1 μM siponimod, observed 10 minutes
Procedure: Cryopreserved human iPS cell-derived atrial myocytes (Human iPSC-derived atrial cardiomyocytes, available from Axol Bioscience) were thawed and seeded at 1,400,000 cells/well on a fibronectin-coated 6-well plate, followed by culturing in an incubator at 37° C. and 5% CO2 for 11 days. During the culture, the entire amount of medium was changed every other day. After the elapse of 11 days, human iPS cell-derived atrial myocytes that started beating were removed from the plate and recovered with TrypLE Select Enzyme (available from ThermoFisher Scientific). The atrial myocytes were seeded at 25,000 cells/2 μL on a fibronectin-coated 6-well MEA Chip (60-6well MEA200/30iR-Ti-tcr, available from Multi Channel Systems) and cultured in an incubator at 37° C. and 5% CO2 for one hour. Thereafter, 400 μL of medium was added and cultured in an incubator at 37° C. and 5% CO2 for 13 days. During the culture, a half amount of the medium was changed every other day. After the elapse of […], the MEA Chip was set in a multi-electrode array system (MEA2100, available from Multi Channel Systems) to thereby obtain extracellular potentials under spontaneous beating. […] Data were analyzed with Labchart System (available from ADInstruments).
In FIG. 6, the measurements are shown as mean±standard error, and (I) denotes compound (I).

Hartley guinea pigs [3] = assay: Preventive effect on siponimod-induced bradyarrhythmia in isoflurane-anesthetized guinea pig model; format: in vivo; settings: siponimod 0.01 mg/kg i.v. over 10 min, compound (I) non-administration group
Procedure: A solvent or compound (I) (free form) was administered by oral gavage at a dose of 0.3. 1, or 3 mg/kg (volume: 5 mL/kg) to Hartley guinea pigs (7 to 10 weeks old, male, available from Japan SLC, Inc.). After completion of the administration, each animal was subjected to anesthetic induction by inhalation of isoflurane (available from Pfizer Japan Inc.), and the animal was held on an operating table having a heater function. The trachea was incised, and a tracheal cannula (KN-375, available from Natsume Seisakusho Co., Ltd.) was inserted. The tracheal cannula was connected to a ventilator (SN-480-7, available from Shinano Seisakusho Co., Ltd.), and artificial respiration was controlled by supplying 100% oxygen at a volume of 10 mL and a ventilation rate of 60 times/minute. The solvent used was 0.5 w/v % methyl cellulose 400 solution (available from FUJIFILM Wako Pure Chemical Corporation). Isoflurane (available from Pfizer Japan Inc.) anesthesia (about 1 to 4%, carrier gas: 100% oxygen) was used for maintenance of anesthesia. A catheter (BD intramedic polyethylene tubing PE50, available from Becton, Dickinson and Company) charged with 50 units/mL heparin (available from AY PHARMACEUTICALS CO., LTD.) was inserted into each of the carotid artery and the jugular vein and placed in the blood vessel. Systemic blood pressure was measured with a high-sensitivity DC amplifier (AD-611J, available from NIHON KOHDEN CORPORATION) via the catheter placed in the carotid artery. Electrodes were attached to the body surface, and a body surface electrocardiogram was measured with a high-sensitivity amplifier (AB-611J, available from NIHON KOHDEN CORPORATION). Blood pressure and electrocardiogram data were acquired and analyzed with PowerLab/Labchart system (available from ADInstruments). Analysis items are systolic blood pressure, diastolic blood pressure, average blood pressure, heart rate, P-wave width, PR interval, QRS width, QT interval, and corrected QT interval. Corrected QT interval was calculated using the Fridericia formula (QTc=QT interval/RR interval^1/3). After stabilization of each parameter, siponimod (synthesized according to WO 2017/120124) was continuously administered intravenously at 0.01 mg/kg for 10 minutes via the catheter placed in the jugular vein, followed by observation of the presence or absence of the onset of bradyarrhythmia for 60 minutes. The solvent used was a solution prepared by mixing of Polyethylene Glycol 400 (available from KANTO CHEMICAL CO., INC.) and dimethyl sulfoxide (available from FUJIFILM Wako Pure Chemical Corporation) at 9: 1 (volume ratio). Data were recorded and blood was collected 5, 10, 15, 20, 30, and 60 minutes after initiation of administration of siponimod. The observation was terminated 60 minutes after initiation of the administration, and the animal was euthanized by exsanguination or intravenous administration of a large amount of saturated potassium chloride solution under isoflurane anesthesia. Data were analyzed for atrial beating rate over time, ventricular beating rate over time, electrocardiographic parameters, the presence or absence of the onset of atrioventricular block, and plasma concentrations of compound (I) and siponimod. The plasma was collected by centrifuging the blood and cryopreserved at about −20° C. After thawing of the plasma, plasma drug concentrations were measured using LC/MS/MS after deproteinization with acetonitrile.
In FIG. 3, the measurements are shown as mean±standard error. Abbreviations, etc. are as follows. • (I): compound (I) • Atrioventricular block: the presence or absence of atrioventricular block • (x denotes second- or third-degree atrioventricular block) • PR & QRS: atrioventricular conduction time and ventricular activation time • QT & QTcF: ventricular repolarization time and heart rate-corrected ventricular repolarization time • Plasma concentration: the plasma concentration of siponimod or compound (I)

Hartley guinea pigs [4] = assay: Termination effect on fingolimod-induced bradyarrhythmia in isoflurane-anesthetized guinea pig model; format: in vivo; settings: 30 minutes after initiation of administration of 0.1 mg/kg i.v.; FIG. 5
Description: Hartley guinea pigs (7 to 10 weeks old, male, available from Japan SLC, Inc.) were subjected to anesthetic induction by inhalation of isoflurane (available from Pfizer Japan Inc.), and each animal was held on an operating table having a heater function. The trachea was incised, and a tracheal cannula (KN-375, available from Natsume Seisakusho Co., Ltd.) was inserted. The tracheal cannula was connected to a ventilator (SN-480-7, available from Shinano Seisakusho Co., Ltd.), and artificial respiration was controlled by supplying 100% oxygen at a volume of 10 mL and a ventilation rate of 60 times/minute. Isoflurane (available from Pfizer Japan Inc.) anesthesia (about 1 to 4%, carrier gas: 100% oxygen) was used for maintenance of anesthesia. A catheter (BD intramedic polyethylene tubing PE50, available from Becton, Dickinson and Company) charged with 50 units/mL heparin (available from AY PHARMACEUTICALS CO., LTD.) was inserted into each of the carotid artery and the jugular vein and placed in the blood vessel. Systemic blood pressure was measured with a high-sensitivity DC amplifier (AD-611J, available from NIHON KOHDEN CORPORATION) via the catheter placed in the carotid artery. Electrodes were attached to the body surface, and a body surface electrocardiogram was measured with a high-sensitivity amplifier (AB-611J, available from NIHON KOHDEN CORPORATION). Blood pressure and electrocardiogram data were acquired and analyzed with PowerLab/Labchart system (available from ADInstruments). After stabilization of each parameter, fingolimod hydrochloride (available from Nissan Chemical Corporation) was continuously administered intravenously at 0.1 mg/kg for 10 minutes via the catheter placed in the jugular vein, followed by observation of the presence or absence of atrioventricular block. After confirmation that atrioventricular block continued for 10 minutes from the onset thereof, a solvent or compound (I) dihydrochloride was continuously administered intravenously at 0.1 mg/kg for 30 minutes, and the effect of terminating atrioventricular block was observed during the intravenous administration. The solvent used was saline (available from Otsuka Pharmaceutical Factory, Inc.). Data were recorded and blood was collected 10, 20, and 30 minutes after initiation of administration of compound (I) dihydrochloride and at the time of termination of atrioventricular block. The observation was terminated 30 minutes after initiation of the administration, and the animal was euthanized by exsanguination or intravenous administration of a large amount of saturated potassium chloride solution under isoflurane anesthesia. Data were analyzed for the presence or absence of the termination, the time required for the termination, and the plasma concentration of compound (I) at the time of termination. The plasma was collected by centrifuging the blood and cryopreserved at about −20° C. After thawing of the plasma, plasma drug concentrations were measured using LC/MS/MS after deproteinization with acetonitrile.
In Table 1, the measurements are shown as mean±standard error.

Structure (SMILES): CCCCCCCCc1ccc(CCC(N)(CO)CO)cc1 [fingolimod, reference compound]
cases with fingolimod-induced atrioventricular block (Hartley guinea pigs [1]): four out of four

beating rate after addition of siponimod (sinus bradycardia) [2]: ≤ 50 beats/minute
Structure (SMILES): CCc1cc(/C(C)=N/OCc2ccc(C3CCCCC3)c(C(F)(F)F)c2)ccc1CN1CC(C(=O)O)C1 [siponimod, reference compound]
cases with siponimod-induced atrioventricular block (Hartley guinea pigs [3]): three out of four

Structure (SMILES): Cc1cc(CO)nc2cc3c(cc12)OC(C)(C)[C@H](O)[C@H]3NCCc1ccccc1 [compound (I) dihydrochloride]
fingolimod-induced bradycardia (heart rate, electrocardiogram) (Hartley guinea pigs [4]): completely recovered
